Source: patent US12514928B2, “Herboxidiene antibody-drug conjugates and methods of use” (Eisai R&D Management Co., Ltd., priority 2018, dated 2026)
Where two headings read alike, the source gives them in different places.

What was measured:
[1] = tested on: HCC1954 breast cancer cells; assay: Payload cell viability dose response (CellTiter-Glo 2.0), HCC1954 (Example 4); assay type: cell-based, human; conditions: for GI50: Homo sapiens
Procedure: (§1) Cell viability dose response was determined for exemplary payload compounds in HER2-amplified HCC1954 breast cancer cells and NCI-N87 gastric cancer cells.
(§2) HCC1954 (American Type Culture Collection (ATCC)) breast ductal carcinoma or NCI-N87 (ATCC) gastric carcinoma cells were plated at 500 cells/well in flat bottom 384-well tissue culture plates (Corning) in a total volume of 30 μL tissue culture medium supplemented with 10% fetal bovine serum (ThermoFisher Scientific). Cells were treated with a 4-fold serial dilution of compound from 10000 nM to 0.01 nM. Each concentration was tested in triplicate. At the time of treatment, a plate of untreated cells was evaluated using CellTiter-Glo® 2.0 Luminescent Cell Viability Assay according to the manufacturer's recommendations (Promega; #G9241). CellTiter-Glo® 2.0 reagent was added to the medium, incubated, and assayed on an EnVision Multilabel Reader (PerkinElmer). Values represent time zero (T0). The number of viable cells following 72 (T72) or 144 hours (T144) of compound treatment was also determined using the CellTiter-Glo®2.0 Luminescent Cell Viability Assay. Using the luminescence value at time zero (T0), DMSO control growth (C), and test growth in the presence of compound (T72 or T144), the percentage growth was calculated at each of the compound concentrations levels. Percentage growth inhibition was calculated as (e.g.): [(T144−T0)/(C−T0)]×100 for concentrations for which T144>/=T0 or [(T144−T0)/T0]×100 for concentrations for which T144<T0. The dose response curve plots were generated using Prism 8 (Graphpad) and fit using nonlinear regression analysis and the log(inhibitor) versus response-variable slope (four parameters).

[2] = tested on: NCI-N87 gastric cancer cells; assay: Payload cell viability dose response (CellTiter-Glo 2.0), NCI-N87 (Example 4); assay type: cell-based, human; conditions: for GI50: Homo sapiens
Procedure: as §1, §2

[3] = tested on: SLC25A19 mature transcript; assay: In-cell splicing PD assay, HCC1954; assay type: cell-based; conditions: Homo sapiens, HCC1954, 6 h
Procedure: (§3) 4.1.2 In-Cell Splicing PD Assay
(§4) Splicing of the SLC25A19 mature transcript was also examined in HCC1954 and NCI-N87 cells treated with increasing concentrations of exemplary payload compounds.
(§5) HCC1954 or NCI-N87 cells (ATCC) were plated in RPM1+10% FBS media (ATCC) at 1000 cells per well at 20 μL per well. Cells were treated with compounds in a 4-fold dilution dose-response. After 6 hours, cells were PBS washed and lysed with 30 μL of CL buffer (IgePal CA-630, 5M NaCl, 1M Tris HCl 1M pH 7.4 in water) containing 25 μL/mL of RNAsin (Promega) and incubated for 20 min at RT on a rocker. Resulting mixture (1 μL) was used to assess splicing modulation in a Taqman Fast Virus 1-Step MasterMix (Applied Biosystems) reverse transcription PCR reaction with the following Taqman primers according to the manufacturer's recommendations: SLC25A19 (Invitrogen, Hs00222265_m1); RPLPO (Invitrogen, Hs99999902_m1).

[4] = tested on: SLC25A19 mature transcript; assay: In-cell splicing PD assay, NCI-N87; assay type: cell-based; conditions: Homo sapiens, NCI-N87, 6 h
Procedure: as §3, §4, §5

[5] = HCC1954, 72 h, read-out: CTG 72 h GI50
[6] = HCC1954, 144 h, read-out: CTG 144 h GI50
[7] = NCI-N87, 72 h, read-out: CTG 72 h GI50
[8] = NCI-N87, 144 h, read-out: CTG 144 h GI50

Compound | CTG 72 h LD50 ([1]; HCC1954, 72 h) | CTG 72 h Rmin ([1]; HCC1954, 72 h) | CTG 144 h LD50 ([1]; HCC1954, 144 h) | CTG 144 h Rm in ([1]; HCC1954, 144 h) | GI50 [1, 5] | GI50 [1, 6] | GI50 [2, 7] | GI50 [2, 8] | CTG 72 h LD50 ([2]; NCI-N87, 72 h) | CTG 72 h Rmin ([2]; NCI-N87, 72 h) | CTG 144 h LD50 ([2]; NCI-N87, 144 h) | CTG 144 h Rmin ([2]; NCI-N87, 144 h) | IC50 [3] | IC50 [4]
COC(=O)[C@@H](CCCCNC(=O)C[C@H]1CC[C@H](C)[C@@H](/C(C)=C/C=C/[C@@H](C)C[C@@]2(C)O[C@@H]2[C@H](C)[C@@H](OC)[C@@H](C)O)O1)NC(=O)N1CCN(C)CC1 [Compound H20] | > 10 µM | −44.802% | 98.861 nM | −94.301% | 40.4 nM | 36.4 nM | 29.4 nM | 21 nM | > 10 µM | −62.676% | 532.734 nM | −94.539% | 51.4 nM | 56.2 nM
CO[C@H]([C@@H](C)[C@H]1O[C@]1(C)C[C@H](C)/C=C/C=C(\C)[C@H]1O[C@@H](CNC(=O)[C@H]2CC[C@H](COC(=O)N3CCN(C)CC3)CC2)CC[C@@H]1C)[C@@H](C)O [Compound H22] | > 10 µM | 82.229% | > 10000 nM | 71.431% | > 10000 nM | > 10000 nM | > 10000 nM | 5100 nM | > 10 µM | 48.181% | > 10000 nM | 29.113% | > 10000 nM | > 10000 nM
CO[C@H]([C@@H](C)[C@H]1O[C@]1(C)C[C@H](C)/C=C/C=C(\C)[C@H]1O[C@@H](CC(=O)N[C@H](CCCOC(=O)N2CCN(C)CC2)C(=O)O)CC[C@@H]1C)[C@@H](C)O [Compound H18] | > 10 µM | −20.785% | 1606.048 nM | −88.195% | 624 nM | 436 nM | 300 nM | 313 nM | > 10 µM | −12.297% | 3937.618 nM | −60.543% | 1680 nM | 464 nM
CO[C@H]([C@@H](C)[C@H]1O[C@]1(C)C[C@H](C)/C=C/C=C(\C)[C@H]1O[C@@H](CC(=O)N[C@@H](CCOC(=O)N2CCN(C)CC2)C(=O)O)CC[C@@H]1C)[C@@H](C)O [Compound H14] | > 10 µM | −42.359% | 2055.923 nM | −95.522% | 626 nM | 682 nM | 415 nM | 730 nM | > 10 µM | −2.467% | 7944.263 nM | −63.41% | 1350 nM | 962 nM
COC(=O)[C@@H](CCCCNC(=O)N1CCN(C)CC1)NC(=O)C[C@H]1CC[C@H](C)[C@@H](/C(C)=C/C=C/[C@@H](C)C[C@@]2(C)O[C@@H]2[C@H](C)[C@@H](OC)[C@@H](C)O)O1 [Compound H21] | > 10 µM | −54.164% | 127.893 nM | −97.761% | 81.4 nM | 50 nM | 35.5 nM | 40.9 nM | > 10 µM | −7.791% | 654.736 nM | −86.347% | 157 nM | 87.5 nM
CO[C@H]([C@@H](C)[C@H]1O[C@]1(C)C[C@H](C)/C=C/C=C(\C)[C@H]1O[C@@H](CC(=O)N[C@@H](CCCOC(=O)N2CCN(C)CC2)C(=O)O)CC[C@@H]1C)[C@@H](C)O [Compound H17] | > 10 µM | −48.872% | 275.218 nM | −96.54% | 139 nM | 126 nM | 47 nM | 81.3 nM | > 10 µM | −15.164% | 912.895 nM | −65.458% | 135 nM | 114 nM
CO[C@H]([C@@H](C)[C@H]1O[C@]1(C)C[C@H](C)/C=C/C=C(\C)[C@H]1O[C@@H](CC(=O)NCCCC[C@@H](NC(=O)N2CCN(C)CC2)C(=O)O)CC[C@@H]1C)[C@@H](C)O [Compound H19] | > 10 µM | 32.813% | > 10000 nM | 27.17% | 8990 nM | 7930 nM | > 10000 nM | 3270 nM | > 10 µM | 44.396% | > 10000 nM | 17.442% | > 10000 nM | > 10000 nM
CO[C@H]([C@@H](C)[C@H]1O[C@]1(C)C[C@H](C)/C=C/C=C(\C)[C@H]1O[C@@H](CC(=O)N[C@@H](COC(=O)N2CCN(C)CC2)C(=O)O)CC[C@@H]1C)[C@@H](C)O [Compound H13] | > 10 µM | −54.164% | 690.614 nM | −97.151% | 190 nM | 210 nM | 53.9 nM | 115 nM | > 10 µM | −15.164% | 2784.969 nM | −80.613% | 320 nM | 108 nM
CO[C@H]([C@@H](C)[C@H]1O[C@]1(C)C[C@H](C)/C=C/C=C(\C)[C@H]1O[C@@H](CC(=O)N[C@@H](CCNC(=O)N2CCN(C)CC2)C(=O)O)CC[C@@H]1C)[C@@H](C)O [Compound H15] | > 10 µM | −44.191% | 31.77 nM | −95.522% | 18.1 nM | 11.7 nM | 6 nM | 3.5 nM | > 10 µM | −18.031% | 106.186 nM | −82.661% | 37.1 nM | 15.4 nM
COC(=O)[C@H](CCNC(=O)N1CCN(C)CC1)NC(=O)C[C@H]1CC[C@H](C)[C@@H](/C(C)=C/C=C/[C@@H](C)C[C@@]2(C)O[C@@H]2[C@H](C)[C@@H](OC)[C@@H](C)O)O1 [Compound H16] | > 10 µM | −65.968% | 22.316 nM | −98.779% | 11.8 nM | 8.98 nM | 6.76 nM | 3.62 nM | > 10 µM | −21.717% | 98.186 nM | −86.757% | 16.7 nM | 8.55 nM
